Data from patent publication EP0015544A2, “Derivatives of the mercaptopropionamido-acetic acid, process for the preparation thereof and compositions” (ZAMBON S.p.A., priority 1979, dated 1980).

What was measured:
[1] = tested on: mucins of the fibrillar reticulum; assay: glycopeptide analysis of bronchial mucus from orally treated patients; assay type: in vivo; details: comparative test, 70 mg/kg/die
Protocol: The analysis of the glycopeptides of the bronchial mucus obtained by hydrolysis with papaine (24 hours at 37°C, pH 6.5) followed by pronasis (24 hours at 37°C at pH 7.3) and fractionation by electrophoresis on agarose at pH 8.6 and finally chromatografy on DEAE -Sephadex A/25 column has shown an average increasing of about 100% of the sialoglycopeptides (hydrophil- ics) with a reduction higher than 60% of the weakly acid glycopeptides and neutral mucins (hydrophobics) followed by lowering of the viscosity.

in vivo = details: ip, i.p. administration in the mouse, buffered with sodium bicarbonate at pH 6, read-out: DL50 (the source's name)
[2] = tested on: bronchial ipersecretion induced with S02; assay: bronchial hypersecretion induced with SO2 in rats; assay type: in vivo; details: oral, two weeks, 0.5 g/kg/die (esters: equivalent to 0.5 g/kg/die of free acid); 300 ppm SO2 two hours a day, total 90 hours; untreated animals 80%
Excerpt: Under the same experimental conditions in tests carried out with Carbocysteine at the same dose (0.5 g/kg/die) the percentage of the non protected animals was 25%.

[3] = tested on: intrabronchial desquamation and the reactive mucousa iperplasye; assay: CCl nebulization in rats, bronchial desquamation and mucosal hyperplasia; assay type: in vivo; details: oral 0.5 g/kg/die (esters: equivalent to 0.5 g/kg/die of the acid); nebulization 10 days, 5 nebulizations for 2 minutes a day

Row | Structure (SMILES) | average increasing of the sialoglycopeptides [1] [%] | decreasing of the glycopeptides and mucins [1] [%] | LD50 (in vivo) [mg/kg] | bronchial obstruction, percentage of treated (non protected) animals [2] [%] | hindering of the intrabronchial desquamation and the reactive mucousa iperplasye [3] [%]
1 | N[C@@H](CSCC(=O)O)C(=O)O [Carbocysteine] | ≤ 75 | ≤ 45 | 5180 | 25 | ≤ 40
2 | CC(SCC(=O)O)C(=O)NCC(=O)O (stereo not shown) [S-carboxymethyl-propionyl-glycine] |  |  | 5420 |  | 
3 | O=C(O)CNC(=O)CCSCC(=O)O [beta-(S-carboxvmethvl)-propionvl-qlvcine] |  |  | 5500 |  | 
